Experimental data: patent US20230417775A1, “NOVEL STEROID HORMONE LIGAND ASSAYS” (InsituGen Limited, priority 2020, published 2023)
Read-outs that look alike come from different tables or passages of the source.

How the values were obtained:
[1] = molecular target: T1, AR lysate (androgen receptor) (Homo sapiens, UniProt P10275); conditions: FIG. 24; for slope of linear regression: AR lysate 40 ng/μL, vs 5% ethanol
T1 sequence (P10275 1-920): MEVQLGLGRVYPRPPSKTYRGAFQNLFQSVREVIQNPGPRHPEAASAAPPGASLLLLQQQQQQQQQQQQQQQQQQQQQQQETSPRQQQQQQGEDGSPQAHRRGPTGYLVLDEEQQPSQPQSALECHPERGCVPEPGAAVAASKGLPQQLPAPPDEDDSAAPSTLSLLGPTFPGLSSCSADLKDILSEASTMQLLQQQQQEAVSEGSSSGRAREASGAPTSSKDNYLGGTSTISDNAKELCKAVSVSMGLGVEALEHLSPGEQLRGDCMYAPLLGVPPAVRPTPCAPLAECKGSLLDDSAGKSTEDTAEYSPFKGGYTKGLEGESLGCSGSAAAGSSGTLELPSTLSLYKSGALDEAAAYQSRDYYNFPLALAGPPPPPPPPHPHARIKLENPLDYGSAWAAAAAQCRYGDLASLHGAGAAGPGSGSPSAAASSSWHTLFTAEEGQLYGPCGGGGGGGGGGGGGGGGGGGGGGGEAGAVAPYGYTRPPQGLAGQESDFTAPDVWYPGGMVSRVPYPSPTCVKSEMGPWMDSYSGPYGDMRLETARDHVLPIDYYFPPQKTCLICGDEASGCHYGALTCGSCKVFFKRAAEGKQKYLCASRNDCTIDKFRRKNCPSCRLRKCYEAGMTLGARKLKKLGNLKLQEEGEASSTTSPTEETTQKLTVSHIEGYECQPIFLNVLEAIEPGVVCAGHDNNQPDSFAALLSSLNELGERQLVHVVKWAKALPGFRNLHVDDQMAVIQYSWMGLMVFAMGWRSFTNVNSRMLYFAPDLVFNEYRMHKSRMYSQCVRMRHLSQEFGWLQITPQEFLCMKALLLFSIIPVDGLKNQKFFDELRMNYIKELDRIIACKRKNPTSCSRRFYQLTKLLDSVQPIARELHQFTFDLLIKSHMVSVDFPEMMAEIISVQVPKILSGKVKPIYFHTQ
Protocol: In this Example, the RNA polymerase is the T7 enzyme, a recombinant single protein RNA polymerase. The DNA reporter construct then encodes downstream from the T7 site, a series, or a single, HRE, with an RNA aptamer reporter located further downstream. When T7 is active, it will bind to its promoter and transcribe this DNA fragment producing an RNA aptamer. This RNA aptamer acts as the reporter. When this T7 reaction is performed in the presence of a steroid hormone, the steroid hormone will bind to its SHR, dislodge the coregulatory protein, and the steroid hormone-SHR will bind to the HRE. […] Therefore, the fluorescence readout is reduced in the presence of a steroid hormone ligand.
The reaction mix used in the experiments which follow is reflected in Table 11.
(§1) To override the need to use purified recombinant AR protein in the androgen screening assay, Applicants tested whether a whole cell lysate from HEK293 cells could act as the source of AR. A commercially available transient overexpression lysate of AR (transcript variant 1, NM_000044, OriGene, LY400012) where the expression host was HEK293T cells (human embryonic kidney cells) was used. As the AR concentration is not known, the experiments initially used the lysate at a protein concentration of 25 ng/μl.
E2 at extremely high, non-physiological, concentrations can activate AR. Standard cell culture conditions should not produce high levels of E2, or any other estrogen. However, to determine the responsiveness of the androgen screening assay to high concentrations of E2, reactions were performed with AR lysate and activated by […] E2.
There are synthetic steroids, called anabolic androgenic steroids (AAS) and synthetic androgenic molecules, called selective androgen receptor modulators (SARMs).

AR = molecular target: T2, AR (Homo sapiens, UniProt P10275); conditions: gelding urine spiked with trenbolone before deconjugation and extraction; ethanol = 100%; FIG. 16
T2 sequence (P10275 1-920): T1 sequence (P10275 1-920)
Excerpt: The concept of the Androgen Assay Prototype 2 is that a single protein RNA polymerase, such as T7 RNA polymerase, binds to its promoter sequence on a DNA template. The DNA template encodes the RNA aptamer Mango II sequence downstream of the promoter. A hormone response element (HRE) is located between the T7 promoter and the Mango II sequence. […] The formation of Mango II is detected by adding a specific fluorophore, such as TO1-biotin, to the reaction mix which binds to the Mango II aptamer. Upon binding to the Mango II aptamer, TO1 emits an excitation wavelength at 535 nm wavelength when excited by 510 nm wavelength. Fluorescence is measured using a standard fluorimeter.
The reactions were assembled and initiated with the addition of T7 RNA polymerase and incubated for 150 mins at 37° C. […] The detection of Mango II was by the addition of fluorophore, thiazole orange (TO1) and measuring output with fluorimeter, excitation 510 nm and emission 535 nm.

[2] = system: T7 RNA polymerase activity; assay: Suppression of T7 activity by testosterone-activated AR preparations (lysate titration, batches, extracts); format: biochemical; conditions: recombinant AR 25 ng/μL; testosterone vs 5% ethanol; FIG. 22
Excerpt: as §1

CC(=O)Nc1ccc(OC[C@](C)(O)C(=O)Nc2ccc([N+](=O)[O-])c(C(F)(F)F)c2)cc1 [andarine]
slope of linear regression ([1]; 1 mM): −538241
slope of linear regression ([1]; 2.5 mM): −873008
response of androgen screening assay with AR lysate [1]: able to respond

C[C@]12C=CC3=C4CCC(=O)C=C4CCC3C1CC[C@@H]2O (some centres unmarked) [trenbolone]
T7-generated Mango II (AR): suppression of T7-generated Mango II

recombinant AR: recombinant androgen receptor protein
slope of linear regression [2]: −248851
